Test system: Jurkat T-cells
Type: cell-based, human

Row | SMILES | LCK localization ratio (LR) at the immune synapse
1 | Nc1ncnc2c1c(-c1ccc(Oc3ccccc3)cc1)cn2C1CCCC1 [LCK inhibitor (CAS 213743-31-8)] | 1.05
2 | CCOC(=O)N1CCC(Nc2c(NCCN3CCN(c4cccc(C(F)(F)F)c4)CC3)c(=O)c2=O)CC1 [squarunkin A] | 0.94
